Test results from the supplement of paper PMC11208160.

assay: recombinant barcode read abundance after kanamycin selection (control-corrected) (log10(CPM+1)); higher = more efficient recombination; sequences stand for … in AGTGCAGAGAAAATCGGCCAGTTTTCTCTGCCTGCAGTCCGCATGCCGT…AGATTTATGCAGCGGACTGCCTTTCTCCCAAAGTGATAAACCGGACAGTATCATGGACCGGTTTTCCCGGTAATCCGTATTTGCAAGGTTGGTTTCACT; site = the 11-nt target
Procedure, shortened: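 Recombination efficiency in this pooled E. coli screen uses counts per million of barcodes at recombinant junctions, averaged and corrected against the control. The reported form is log10(CPM+1). Two replicates were plated on chloramphenicol/ampicillin LB agar as control and two on chloramphenicol/ampicillin/kanamycin with 0.1 mM IPTG.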
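Note: IS621 recombinase and bridge RNA in Escherichia coli cells.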

Compared with “GGCTCCTCTTGGGTTCTAACCTGTTGCCT (site GGCTCCTCTAG)”, “GGCTCCTCTTGGGTTCTAACCTGTTGCCT (site TGCTCCTCTAG)” is lower in “recombinant barcode read abundance (log10)” value: 0.733 for the first, 0.0949 for the second.

“GGCTTACCTTGGGTTCTAACCTGTTGCCT (site AGCTTACCTAG)” and “GGCTTACCTTGGGTTCTAACCTGTTGCCT (site CGCTTACCTAG)” are within 0.2 log units of each other in “recombinant barcode read abundance (log10)” value: 0.0239 for the first, 0.0687 for the second.

“GGCTTACCTTGGGTTCTAACCTGTTGCCT (site GGCTTACCTAG)” and “GGCTTACCTTGGGTTCTAACCTGTTGCCT (site TGCTTACCTAG)” are within 0.2 log units of each other in “recombinant barcode read abundance (log10)” value: 0.556 for the first, 0.395 for the second.

First: GGCTTGTCTTGGGTTCTAACCTGTTGCCT (site GGCATGTCTAG)
Second: GGCTTGTCTTGGGTTCTAACCTGTTGCCT (site GGCTTGTCTAG)
The “recombinant barcode read abundance (log10)” value of the first is lower: 0.0663 for the first, 0.655 for the second.

Going from “GGGAACGCTTGGGTTCTAACCTGTTGCCT (site GGGAACGCTAG)” to “GGGAACGCTTGGGTTCTAACCTGTTGCCT (site GGGAATGCTAG)”, the “recombinant barcode read abundance (log10)” value falls from 2.85 to 0.0432.

Going from “GGGACATCTTGGGTTCTAACCTGTTGCCT (site GGGACATCTAG)” to “GGGACATCTTGGGTTCTAACCTGTTGCCT (site GGGGCATCTAG)”, the “recombinant barcode read abundance (log10)” value falls from 0.987 to 0.015.

Going from “GGGACCACTTGGGTTCTAACCTGTTGCTA (site GGGACCACTTA)” to “GGGACCACTTGGGTTCTAACCTGTTGCTA (site TTCGGACCTCC)”, the “recombinant barcode read abundance (log10)” value falls from 1.77 to 0.0578.

Compared with “GGGACCTCTTGGGTTCTAACCTGTTGCTC (site GGGACCTCTGA)”, “GGGACCTCTTGGGTTCTAACCTGTTGCTC (site GTGACCTCTCA)” is lower in “recombinant barcode read abundance (log10)” value: 1.24 for the first, 0.167 for the second.

Going from “GGGACGACTTGGGTTCTAACCTGTTGCTA (site GGGACGACTAA)” to “GGGACGACTTGGGTTCTAACCTGTTGCTA (site GGGACGACTTA)”, the “recombinant barcode read abundance (log10)” value rises from 0.161 to 1.35.

First: GGGATACCTTGGGTTCTAACCTGTTGCCT (site GCGTTACCTAG)
Second: GGGATACCTTGGGTTCTAACCTGTTGCCT (site GGGATACCTAG)
The “recombinant barcode read abundance (log10)” value of the first is lower: 0.0414 for the first, 2.6 for the second.

Going from “GGGCACTCTTGGGTTCTAACCTGTTGCAT (site GGGCACTCTAA)” to “GGGCACTCTTGGGTTCTAACCTGTTGCAT (site GGGCACTCTAC)”, the “recombinant barcode read abundance (log10)” value falls from 0.75 to 0.132.

First: GGGCACTCTTGGGTTCTAACCTGTTGCAT (site GGGCACTCTAG)
Second: GGGCACTCTTGGGTTCTAACCTGTTGCAT (site GGGCACTCTAT)
The “recombinant barcode read abundance (log10)” value of the first is lower: 0.606 for the first, 2.22 for the second.

“GGGCACTCTTGGGTTCTAACCTGTTGCCT (site GGGCACTCTAA)” and “GGGCACTCTTGGGTTCTAACCTGTTGCCT (site GGGCACTCTAC)” are within 0.2 log units of each other in “recombinant barcode read abundance (log10)” value: 0.122 for the first, 0.0754 for the second.

Going from “GGGCACTCTTGGGTTCTAACCTGTTGCCT (site GGGCACTCTAG)” to “GGGCACTCTTGGGTTCTAACCTGTTGCCT (site GGGCACTCTAT)”, the “recombinant barcode read abundance (log10)” value falls from 1.22 to 0.585.

First: GGGCACTCTTGGGTTCTAACCTGTTGCTT (site GGGCACTCTAA)
Second: GGGCACTCTTGGGTTCTAACCTGTTGCTT (site GGGCACTCTAC)
The “recombinant barcode read abundance (log10)” value of the first is higher: 1.93 for the first, 0.503 for the second.

“GGGCACTCTTGGGTTCTAACCTGTTGCTT (site GGGCACTCTAG)” and “GGGCACTCTTGGGTTCTAACCTGTTGCTT (site GGGCACTCTAT)” are within 0.2 log units of each other in “recombinant barcode read abundance (log10)” value: 1.35 for the first, 1.54 for the second.

Compared with “GGGCAGGCTTGGGTTCTAACCTGTTGCCT (site ATCGTATCTGC)”, “GGGCAGGCTTGGGTTCTAACCTGTTGCCT (site GGGCAGGCTAG)” is higher in “recombinant barcode read abundance (log10)” value: 0.189 for the first, 0.969 for the second.

Compared with “GGGCCCGCTTGGGTTCTAACCTGTTGCTA (site GGGCCCGCTTA)”, “GGGCCCGCTTGGGTTCTAACCTGTTGCTA (site GGTCCCGCTTG)” is lower in “recombinant barcode read abundance (log10)” value: 1.68 for the first, 0.0696 for the second.

“GGGCCTACTTGGGTTCTAACCTGTTGCTC (site GGGCCTACTAA)” and “GGGCCTACTTGGGTTCTAACCTGTTGCTC (site GGGCCTACTCA)” are within 0.2 log units of each other in “recombinant barcode read abundance (log10)” value: 0.248 for the first, 0.0546 for the second.

“GGGCCTACTTGGGTTCTAACCTGTTGCTC (site GGGCCTACTGA)” and “GGGCCTACTTGGGTTCTAACCTGTTGCTC (site GGGCCTACTTA)” are within 0.2 log units of each other in “recombinant barcode read abundance (log10)” value: 0.29 for the first, 0.171 for the second.

Compared with “GGGCCTACTTGGGTTCTAACCTGTTGCTT (site GGGCCTACTAA)”, “GGGCCTACTTGGGTTCTAACCTGTTGCTT (site GGGCCTACTCA)” is lower in “recombinant barcode read abundance (log10)” value: 0.914 for the first, 0.369 for the second.

“GGGCCTACTTGGGTTCTAACCTGTTGCTT (site GGGCCTACTGA)” and “GGGCCTACTTGGGTTCTAACCTGTTGCTT (site GGGCCTACTTA)” are within 0.2 log units of each other in “recombinant barcode read abundance (log10)” value: 0.255 for the first, 0.063 for the second.

Going from “GGGCCTTCTTGGGTTCTAACCTGTTGCAT (site GGGACTTCTAT)” to “GGGCCTTCTTGGGTTCTAACCTGTTGCAT (site GGGCCTTCTAT)”, the “recombinant barcode read abundance (log10)” value rises from 0.24 to 1.07.

Going from “GGGCCTTCTTGGGTTCTAACCTGTTGCAT (site GGGGCTTCTAT)” to “GGGCCTTCTTGGGTTCTAACCTGTTGCAT (site GGGTCTTCTAT)”, the “recombinant barcode read abundance (log10)” value falls from 0.31 to 0.0646.

First: GGGGACCCTTGGGTTCTAACCTGTTGCGA (site GGGGACCCTAC)
Second: GGGGACCCTTGGGTTCTAACCTGTTGCGA (site GGGGACCCTCC)
The “recombinant barcode read abundance (log10)” value of the first is higher: 1.74 for the first, 0.877 for the second.

Compared with “GGGGACCCTTGGGTTCTAACCTGTTGCGA (site GGGGACCCTGC)”, “GGGGACCCTTGGGTTCTAACCTGTTGCGA (site GGGGACCCTTC)” is higher in “recombinant barcode read abundance (log10)” value: 0.247 for the first, 2.48 for the second.

First: GGGGACCCTTGGGTTCTAACCTGTTGCGC (site GGGGACCCTAC)
Second: GGGGACCCTTGGGTTCTAACCTGTTGCGC (site GGGGACCCTCC)
The “recombinant barcode read abundance (log10)” value of the first is higher: 2.24 for the first, 0.0282 for the second.

Going from “GGGGACCCTTGGGTTCTAACCTGTTGCGC (site GGGGACCCTGC)” to “GGGGACCCTTGGGTTCTAACCTGTTGCGC (site GGGGACCCTTC)”, the “recombinant barcode read abundance (log10)” value falls from 3.3 to 0.283.

Going from “GGGGAGCCTTGGGTTCTAACCTGTTGCGG (site GGGGAGCCTCC)” to “GGGGAGCCTTGGGTTCTAACCTGTTGCGG (site GGGGATCCTTC)”, the “recombinant barcode read abundance (log10)” value falls from 2.38 to 0.335.

First: GGGGCACCTTGGGTTCTAACCTGTTGCGT (site GGGGCACCTAA)
Second: GGGGCACCTTGGGTTCTAACCTGTTGCGT (site GGGGCACCTAC)
The “recombinant barcode read abundance (log10)” value of the first is lower: 1.16 for the first, 3.72 for the second.

First: GGGGCACCTTGGGTTCTAACCTGTTGCGT (site GGGGCACCTAG)
Second: GGGGCACCTTGGGTTCTAACCTGTTGCGT (site GGGGCACCTAT)
The “recombinant barcode read abundance (log10)” value of the first is lower: 0.492 for the first, 2.61 for the second.

“GGGGCATCTTGGGTTCTAACCTGTTGCCT (site GGGACATCTAG)” and “GGGGCATCTTGGGTTCTAACCTGTTGCCT (site GGGGCATCTAG)” are within 0.2 log units of each other in “recombinant barcode read abundance (log10)” value: 0.105 for the first, 0.0863 for the second.

First: GGGGCATCTTGGGTTCTAACCTGTTGCTT (site GGGGCATCTAA)
Second: GGGGCATCTTGGGTTCTAACCTGTTGCTT (site GGGGCCTCTAA)
The “recombinant barcode read abundance (log10)” value of the first is higher: 0.95 for the first, 0.0583 for the second.
